According to US20250230193A1, “CYCLIC COMPOUND HAVING SELECTIVE KRAS INHIBITORY EFFECT ON HRAS AND NRAS” (CHUGAI SEIYAKU KABUSHIKI KAISHA, priority 2022, published 2025):
Where a SMILES comes first, the peptide text is derived from it. Bridges are numbered along the chain shown (N, C = ends). [ ]: non-standard residue; d: D form. The star is where a group is joined. hPhe(3-Cl-4-CF3) = N[C@@H](CCc1ccc(C(F)(F)F)c(Cl)c1)C(=O)O; NPrPhe(4-CF3) = CCCN[C@@H](Cc1ccc(C(F)(F)F)cc1)C(=O)O; NEtPhe(4-F) = CCN[C@@H](Cc1ccc(F)cc1)C(=O)O; NMeGly(cPent) = CN[C@H](C(=O)O)C1CCCC1; NMeD = CN[C@@H](CC(=O)O)C(=O)O; NMeL = CN[C@@H](CC(C)C)C(=O)O; Morpholide = C1CN(*)CCO1; Ac5c = NC1(C(=O)O)CCCC1; Sar = CNCC(=O)O

Assays:
[1] = target: GDP-bound HRAS wild-type protein (Homo sapiens, UniProt P01112); test: Binding to HRAS by surface plasmon resonance (SPR), Single Cycle Kinetics; conditions: SPR; for HRAS/KRAS (ratio of KD value for HRAS to KD value for KRAS) / HRAS/KRAS (ratio of KD value with respect to HRAS to KD value with respect to KRAS): GDP-bound HRAS wild-type vs GDP-bound KRAS wild-type
GDP-bound HRAS wild-type protein, sequence (P01112 whole entry): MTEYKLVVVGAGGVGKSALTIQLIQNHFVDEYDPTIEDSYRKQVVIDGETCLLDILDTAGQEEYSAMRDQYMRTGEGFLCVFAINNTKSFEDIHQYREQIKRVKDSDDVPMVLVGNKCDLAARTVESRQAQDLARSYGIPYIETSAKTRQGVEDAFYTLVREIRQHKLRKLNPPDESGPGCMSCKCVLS

[2] = target: GDP-bound NRAS wild-type protein (Homo sapiens, UniProt P01111); test: Binding to NRAS by surface plasmon resonance (SPR), Single Cycle Kinetics; conditions: SPR; for NRAS/KRAS (ratio of KD value for NRAS to KD value for KRAS) / NRAS/KRAS (ratio of KD value with respect to NRAS to KD value with respect to KRAS): GDP-bound NRAS wild-type vs GDP-bound KRAS wild-type
GDP-bound NRAS wild-type protein, sequence (P01111 whole entry): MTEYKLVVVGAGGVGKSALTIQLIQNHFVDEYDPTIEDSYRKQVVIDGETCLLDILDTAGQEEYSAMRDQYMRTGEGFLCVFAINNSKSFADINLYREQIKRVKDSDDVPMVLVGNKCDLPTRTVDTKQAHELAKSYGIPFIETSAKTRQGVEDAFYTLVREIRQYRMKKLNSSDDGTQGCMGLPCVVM

CC[C@H](C)[C@@H]1NC(=O)[C@H](CC(C)C)N(C)C(=O)C[C@@H](C(=O)N2CCOCC2)N(C)C(=O)[C@H](C2CCCC2)N(C)C(=O)C2(CCCC2)NC(=O)[C@@H]2CCCN2C(=O)[C@H](CCc2ccc(C(F)(F)F)c(Cl)c2)NC(=O)CN(C)C(=O)[C@H](Cc2ccc(F)cc2)N(CC)C(=O)CN(C)C(=O)CN(C)C1=O [PP0213] ([NMeL]I[Sar][Sar][NEtPhe(4-F)][Sar][hPhe(3-Cl-4-CF3)]P[Ac5c][NMeGly(cPent)][NMeD]-Morpholide; lactam N-11)
HRAS/KRAS (ratio of KD for GDP-bound HRAS wild-type to KD for KRAS) ([1]; KD ratio HRAS/KRAS): C (A compound having a KD ratio of 0.1 or more and less than 3 is denoted as C)
NRAS/KRAS (ratio of KD for GDP-bound NRAS wild-type to KD for KRAS) ([2]; KD ratio NRAS/KRAS): C (A compound having a KD ratio of 0.1 or more and less than 3 is denoted as C)

CCO[C@@H]1C[C@H]2C(=O)NC3(CC(C)(C)C3)C(=O)N(C)[C@@H](C3CCCC3)C(=O)N(CC)[C@H](C(=O)N(C)C)CC(=O)N(C)[C@@H](CC(C)C)C(=O)N[C@@H]([C@@H](C)CC)C(=O)NCC(=O)N(C)[C@H]3C/C=C\CCN(C3=O)[C@@H](Cc3ccc(C(F)(F)F)cc3)C(=O)N(C)CC(=O)N[C@@H](CCc3cc(F)c(C(F)(F)F)c(F)c3)C(=O)N2C1 [PP1773]
HRAS/KRAS (ratio of KD value for HRAS to KD value for KRAS) ([1]; KD ratio): A (a compound having 10 or more and less than 20 is denoted as A)
NRAS/KRAS (ratio of KD value for NRAS to KD value for KRAS) ([2]; KD ratio): A (a compound having 10 or more and less than 20 is denoted as A)

CCC[C@H]1C(=O)N[C@@H]([C@@H](C)CC)C(=O)N(C2CC2)CC(=O)N(C)[C@H]2C/C=C\CCN(C2=O)[C@@H](CC2CCCCC2)C(=O)N(C)CC(=O)N[C@@H](CCc2ccc(C(F)(F)F)c(OC)c2)C(=O)N2C[C@H](OCC)C[C@H]2C(=O)N(C)C2(CCC2)C(=O)N(C)[C@@H](C2CCCC2)C(=O)N(C)[C@H](C(=O)N(C)C)CC(=O)N1C [PP2340]
HRAS/KRAS (ratio of KD value with respect to HRAS to KD value with respect to KRAS) [1]: B (a compound having 3 or more and less than 10 is denoted as B)
NRAS/KRAS (ratio of KD value with respect to NRAS to KD value with respect to KRAS) [2]: B (a compound having 3 or more and less than 10 is denoted as B)

CCCN1C(=O)CN(C)C(=O)CN(C)C(=O)[C@H]([C@@H](C)CC)NC(=O)[C@H](CC(C)C)N(C)C(=O)C[C@@H](C(=O)N2CCOCC2)N(C)C(=O)[C@H](C2CCCC2)N(C)C(=O)[C@@H](C)NC(=O)[C@@H]2CCCN2C(=O)[C@H](CCc2ccc(C(F)(F)F)c(Cl)c2)NC(=O)CN(C)C(=O)[C@@H]1Cc1ccc(C(F)(F)F)cc1 [PP0150] ([NMeL]I[Sar][Sar][NPrPhe(4-CF3)][Sar][hPhe(3-Cl-4-CF3)]P[dA][NMeGly(cPent)][NMeD]-Morpholide; lactam N-11)
HRAS/KRAS (ratio of KD for GDP-bound HRAS wild-type to KD for KRAS) ([1]; KD ratio HRAS/KRAS): C (A compound having a KD ratio of 0.1 or more and less than 3 is denoted as C)
NRAS/KRAS (ratio of KD for GDP-bound NRAS wild-type to KD for KRAS) ([2]; KD ratio NRAS/KRAS): B (a compound having 3 or more and less than 10 is denoted as B)

CC[C@H](C)[C@@H]1NC(=O)[C@H](CC)N(C)C(=O)C[C@@H](C(=O)N(C)C)N(C)C(=O)[C@H](C2CCCC2)N(C)C(=O)C2(CCCC2)N(C)C(=O)[C@@H]2CCCN2C(=O)[C@H](CCc2cc(F)c(C(F)(F)F)c(F)c2)NC(=O)CN(C)C(=O)[C@H](Cc2ccc(C)cc2)N2CC/C=C\C[C@@H](C2=O)N(C)C(=O)CN(C)C1=O [PP1807]
HRAS/KRAS (ratio of KD value for HRAS to KD value for KRAS) ([1]; KD ratio): B (a compound having 3 or more and less than 10 is denoted as B)
NRAS/KRAS (ratio of KD value for NRAS to KD value for KRAS) ([2]; KD ratio): A (a compound having 10 or more and less than 20 is denoted as A)

CCC[C@H]1C(=O)N[C@@H]([C@@H](C)CC)C(=O)N(C)CC(=O)N(C)[C@H]2C/C=C\CCN(C2=O)[C@@H](Cc2ccc(C)cc2)C(=O)N(C)CC(=O)N[C@@H](CCc2cc(F)c(C(F)(F)F)c(F)c2)C(=O)N2CCC[C@H]2C(=O)N(C)C2(CCC2)C(=O)N(C)[C@@H](C2CCCC2)C(=O)N(C)[C@H](C(=O)N(C)C)CC(=O)N1C [PP1794]
HRAS/KRAS (ratio of KD value for HRAS to KD value for KRAS) ([1]; KD ratio): B (a compound having 3 or more and less than 10 is denoted as B)
NRAS/KRAS (ratio of KD value for NRAS to KD value for KRAS) ([2]; KD ratio): A (a compound having 10 or more and less than 20 is denoted as A)

CCO[C@@H]1C[C@H]2C(=O)NC3(CCC3)C(=O)N(C)[C@@H](C3CCCC3)C(=O)N(C)[C@H](C(=O)N(C)C)CC(=O)N(C)[C@@H](CC(C)C)C(=O)N[C@@H]([C@@H](C)CC)C(=O)N(C)CC(=O)N(C)[C@H]3C/C=C\CCN(C3=O)[C@@H](Cc3ccc(C(F)(F)F)cc3)C(=O)N(C)CC(=O)N[C@@H](CCc3cc(F)c(C(F)(F)F)c(F)c3)C(=O)N2C1 [PP1107]
HRAS/KRAS (ratio of KD value with respect to HRAS to KD value with respect to KRAS) ([1]; KD ratio): A (a compound having 10 or more and less than 20 is denoted as A)
NRAS/KRAS (ratio of KD value with respect to NRAS to KD value with respect to KRAS) ([2]; KD ratio): A (a compound having 10 or more and less than 20 is denoted as A)

CC[C@H](C)[C@@H]1NC(=O)[C@H](CC(C)C)N(C)C(=O)C[C@@H](C(=O)N2CCOCC2)N(C)C(=O)[C@H](C2CCCC2)N(C)C(=O)C2(CCCC2)NC(=O)[C@@H]2CCCN2C(=O)[C@H](CCc2cc(F)c(C(F)(F)F)c(F)c2)NC(=O)CN(C)C(=O)[C@H](Cc2ccc(C(F)(F)F)cc2)N2CCCC[C@@H](C2=O)N(C)C(=O)[C@@H]2CCCN2C1=O [PP0547]
HRAS/KRAS (ratio of KD value with respect to GDP-bound HRAS wild-type protein to KD value with respect to KRAS) ([1]; KD ratio HRAS/KRAS): B (a compound having 3 or more and less than 10 is denoted as B)
NRAS/KRAS (ratio of KD value with respect to GDP-bound NRAS wild-type protein to KD value with respect to KRAS) ([2]; KD ratio NRAS/KRAS): B (a compound having 3 or more and less than 10 is denoted as B)
